Patent US20170050980A1, “OXADIAZINE COMPOUNDS AND METHODS OF USE THEREOF” (FORUM Pharmaceuticals Inc., priority 2015, published 2017)

System: Aβ42
Experiment: In vitro cell screening assay; quantification of Aβ (1-42) peptide by sandwich ELISA
Type: cell-based
Conditions: Human neuroglioma H4 cells stably expressing human wild type APP751; compounds 0.003-10 μM, incubated overnight (16-18 h); Aβ42 in supernatant by sandwich ELISA; normalized to DMSO and DAPT; read-out: Aβ42 H4 Prot Fre IC50
Description: Human neuroglioma H4 cells were transfected with a pcDNA3.1 plasmid expressing human wild type APP751 cDNA and a stable cell line was generated using G418 selection. Cells were plated at 15,000 cells/well in Costar 96-well plates and placed at 37° C. and 5% CO2. Six hours after plating, cells were washed three times with Pro293™ chemically defined medium, followed by addition of compounds (0.003-10 μM, final DMSO concentration of 0.33%). Plates were incubated overnight (16-18 h) and supernatant was removed for quantification of Aβ peptides by sandwich ELISA. Cytotoxicity was evaluated using Cell-Titer 96W AQueous One Solution Cell Proliferation Assay according to the manufacturer's protocol.
Aβ peptide levels were quantified by sandwich ELISA. 96-well plates were coated with C-terminal specific Aβ antibodies recognizing either Aβ37, Aβ38, Aβ40, Aβ42, Aβ43 or a N-terminal specific Aβ antibody to detect Aβ 1-x. Plates were then blocked overnight at 4° C. with 1% bovine serum albumin (BSA) in PBS-T. Plates were washed and 100 μl of cultured cell supernatant or synthetic Aβ peptide standards and a detection antibody (4G8-HRP) were applied to the blocked plate and incubated overnight at 4° C. The next day, wells were washed before the addition of detection substrate (TMB peroxidase). Plates were then read for absorbance at 450 nm on a Molecular Devices SpectraMax M5e Microplate Reader.
Compound-treated samples were normalized to samples treated with DMSO alone (no inhibition) and to samples treated with DAPT. IC50 values were calculated from values reported as percent of DMSO controls using nonlinear regression, based on a sigmoidal dose—response (variable slope) model. […] used for calculation.

| SMILES | IC50 |
| --- | --- |
| COc1nc(C2=NOC(C)C(c3cccc(Cl)c3)N2)ccc1-n1cnc(C)n1 (single isomer, unassigned; (+)) [Example 53B, (+)-5-(3-chlorophenyl)-3-(6-methoxy-5-(3-methyl-1H-1,2,4-triazol-1-yl)pyridin-2-yl)-6-methyl-5,6-dihydro-4H-1,2,4-oxadiazine] | 172 nM |
| COc1nc(C2=NOC(C)C(c3cn(C)c4ncc(Cl)cc34)N2)ccc1-n1cnc(C)c1 (single isomer, unassigned; (+)) [Example 54B, (+)-5-(5-chloro-1-methyl-1H-pyrrolo [2,3-b]pyridin-3-yl)-3-(6-methoxy-5-(4-methyl-1H-imidazol-1-yl)pyridin-2-yl)-6-methyl-5,6-dihydro-4H-1,2,4-oxadiazine] | 6.3 nM |
| COc1nc(C2=NOC(C)C(c3cn(C)c4ncc(Cl)cc34)N2)ccc1-n1cnc(C)c1 (single isomer, unassigned; (+)) [Example 54D, (+)-5-(5-chloro-1-methyl-1H-pyrrolo [2,3-b]pyridin-3-yl)-3-(6-methoxy-5-(4-methyl-1H-imidazol-1-yl)pyridin-2-yl)-6-methyl-5,6-dihydro-4H-1,2,4-oxadiazine] | 5.1 nM |
| COc1nc(C2=NOC(C)C(c3ccc(Cl)c(C(F)F)c3)N2)ccc1-n1cnc(C)c1 (single isomer, unassigned; (+)) [Example 55A, (+)-5-(4-chloro-3-(difluoromethyl)phenyl)-3-(6-methoxy-5-(4-methyl-1H-imidazol-1-yl)pyridin-2-yl)-6-methyl-5,6-dihydro-4H-1,2,4-oxadiazine] | 11.6 nM |
| COc1nc(C2=NOC(C)C(c3cn(C)c4ncc(C5CC5)cc34)N2)ccc1-n1cnc(C)c1 (single isomer, unassigned; (+)) [Example 56A, (+)-5-(5-cyclopropyl-1-methyl-1H-pyrrolo [2,3-b]pyridin-3-yl)-3-(6-methoxy-5-(4-methyl-1H-imidazol-1-yl)pyridin-2-yl)-6-methyl-5,6-dihydro-4H-1,2,4-oxadiazine] | 746 nM |
| COc1nc(C2=NOC(C)C(c3cn(C)c4ncc(C5CC5)cc34)N2)ccc1-n1cnc(C)c1 (single isomer, unassigned; (+)) [Example 56D, (+)-5-(5-cyclopropyl-1-methyl-1H-pyrrolo [2,3-b]pyridin-3-yl)-3-(6-methoxy-5-(4-methyl-1H-imidazol-1-yl)pyridin-2-yl)-6-methyl-5,6-dihydro-4H-1,2,4-oxadiazine] | 12.5 nM |
| COc1nc(C2=NOC(C3CC3)C(c3cc(F)cc(F)c3)N2)ccc1-n1cnc(C)c1 (single isomer, unassigned; (+)) [Example 59A, (+)-6-cyclopropyl-5-(3,5-difluorophenyl)-3-(6-methoxy-5-(4-methyl-1H-imidazol-1-yl)pyridin-2-yl)-5,6-dihydro-4H-1,2,4-oxadiazine] | 20.7 nM |
| COc1nc(C2=NOC(C3CC3)C(c3cn(C)c4ncc(F)c(F)c34)N2)ccc1-n1cnc(C)c1 (single isomer, unassigned; (+)) [Example 60A, (+)-6-cyclopropyl-5-(4,5-difluoro-1-methyl-1H-pyrrolo [2,3-b]pyridin-3-yl)-3-(6-methoxy-5-(4-methyl-1H-imidazol-1-yl)pyridin-2-yl)-5,6-dihydro-4H-1,2,4-oxadiazine] | 367 nM |
| COc1nc(C2=NOC(C3CC3)C(c3cc4ccccc4o3)N2)ccc1-n1cnc(C)c1 (single isomer, unassigned; (+)) [Example 61A, (+)-5-(benzofuran-2-yl)-6-cyclopropyl-3-(6-methoxy-5-(4-methyl-1H-imidazol-1-yl)pyridin-2-yl)-5,6-dihydro-4H-1,2,4-oxadiazine] | 16.8 nM |
| COc1nc(C2=NOC(C)C(c3cn(C)c4ncc(Cl)c(F)c34)N2)ccc1-n1cnc(C)c1 (single isomer, unassigned; (+)) [Example 62A, (+)-5-(5-chloro-4-fluoro-1-methyl-1H-pyrrolo [2,3-b]pyridin-3-yl)-3-(6-methoxy-5-(4-methyl-1H-imidazol-1-yl)pyridin-2-yl)-6-methyl-5,6-dihydro-4H-1,2,4-oxadiazine] | 31.7 nM |
| COc1nc(C2=NOC(C3CC3)C(c3cn(C)c4nccc(F)c34)N2)ccc1-n1cnc(C)c1 (single isomer, unassigned; (+)) [Example 63A, (+)-6-cyclopropyl-5-(4-fluoro-1-methyl-1H-pyrrolo [2,3-b]pyridin-3-yl)-3-(6-methoxy-5-(4-methyl-1H-imidazol-1-yl)pyridin-2-yl)-5,6-dihydro-4H-1,2,4-oxadiazine] | 1060 nM |
| COc1nc(C2=NOC(C)C(c3cn(C)c4ncc(C(F)(F)F)cc34)N2)ccc1-n1cnc(C)c1 (single isomer, unassigned; (-)) [44A or 45A, (−)-3-(6-methoxy-5-(4-methyl-1H-imidazol-1-yl)pyridin-2-yl)-6-methyl-5-(1-methyl-5-(trifluoromethyl)-1H-pyrrolo[2,3-b]pyridin-3-yl)-5,6-dihydro-4H-1,2,4-oxadiazine] | 173 nM |
| COc1nc(C2=NOC(C)C(c3cn(C)c4ncc(C(F)(F)F)cc34)N2)ccc1-n1cnc(C)c1 (single isomer, unassigned; (-)) [44C or 45C, (−)-3-(6-methoxy-5-(4-methyl-1H-imidazol-1-yl)pyridin-2-yl)-6-methyl-5-(1-methyl-5-(trifluoromethyl)-1H-pyrrolo[2,3-b]pyridin-3-yl)-5,6-dihydro-4H-1,2,4-oxadiazine] | ~1380 nM |
| COc1nc(C2=NOC(C)C(c3cn(C)c4cc(F)c(Cl)cc34)N2)ccc1-n1cnc(C)c1 (single isomer, unassigned; (-)) [Example 21A, (−)-5-(5-chloro-6-fluoro-1-methyl-1H-indol-3-yl)-3-(6-methoxy-5-(4-methyl-1H-imidazol-1-yl)pyridin-2-yl)-6-methyl-5,6-dihydro-4H-1,2,4-oxadiazine] | 65 nM |
| COc1nc(C2=NOC(C)C(c3cn(C)c4cc(F)c(Cl)cc34)N2)ccc1-n1cnc(C)c1 (single isomer, unassigned; (-)) [Example 21C, (−)-5-(5-chloro-6-fluoro-1-methyl-1H-indol-3-yl)-3-(6-methoxy-5-(4-methyl-1H-imidazol-1-yl)pyridin-2-yl)-6-methyl-5,6-dihydro-4H-1,2,4-oxadiazine] | 370 nM |
| COc1nc(C2=NOC(C)(C)C(c3ccccc3)N2)ccc1-n1cnc(C)c1 (single isomer, unassigned; (-)) [Example 22A, (−)-3-[6-methoxy-5-(4-methyl-1H-imidazol-1-yl)pyridin-2-yl]-6,6-dimethyl-5-phenyl-5,6-dihydro-4H-1,2,4-oxadiazine] | > 3000 nM |
| COc1nc(C2=NOC(C)(C)C(c3ccc(Cl)cc3)N2)ccc1-n1cnc(C)c1 (single isomer, unassigned; (-)) [Example 23A, (−)-5-(4-chlorophenyl)-3-[6-methoxy-5-(4-methyl-1H-imidazol-1-yl)pyridin-2-yl]-6,6-dimethyl-5,6-dihydro-4H-1,2,4-oxadiazine] | 1140 nM |
| COc1nc(C2=NOC3(CC3)C(c3ccc(Cl)cc3)N2)ccc1-n1cnc(C)c1 (single isomer, unassigned; (-)) [Example 25A, (−)-8-(4-chlorophenyl)-6-[6-methoxy-5-(4-methyl-1H-imidazol-1-yl)pyridin-2-yl]-4-oxa-5,7-diazaspiro[2.5]oct-5-ene] | 2600 nM |
| COc1nc(C2=NOCC(C)(c3cn(C)c4ccccc34)N2)ccc1-n1cnc(C)c1 (single isomer, unassigned; (-)) [Example 26B, (−)-3-[3-[6-methoxy-5-(4-methyl-1H-imidazol-1-yl)pyridin-2-yl]-5-methyl-5,6-dihydro-4H-1,2,4-oxadiazin-5-yl]-1-methyl-1H-indole] | 310 nM |
| COc1nc(C2=NOCC(c3c4n(c5ccc(Cl)cc35)CCOC4)N2)ccc1-n1cnc(C)c1 (single isomer, unassigned; (-)) [Example 28B, (−)-8-chloro-10-(3-(6-methoxy-5-(4-methyl-1H-imidazol-1-yl)pyridin-2-yl)-5,6-dihydro-4H-1,2,4-oxadiazin-5-yl)-3,4-dihydro-1H-[1,4]oxazino[4,3-a]indole] | 61.8 nM |
| COc1nc(C2=NOCC(c3cn(C)c4ccc(C5CCOCC5)cc34)N2)ccc1-n1cnc(C)c1 (single isomer, unassigned; (-)) [Example 29A, (−)-3-(6-methoxy-5-(4-methyl-1H-imidazol-1-yl)pyridin-2-yl)-5-(1-methyl-5-(tetrahydro-2H-pyran-4-yl)-1H-indol-3-yl)-5,6-dihydro-4H-1,2,4-oxadiazine] | 663 nM |
| COc1nc(C2=NOCC(c3c4n(c5ccccc35)CCOC4)N2)ccc1-n1cnc(C)c1 (single isomer, unassigned; (-)) [Example 30A, (−)-10-(3-(6-methoxy-5-(4-methyl-1H-imidazol-1-yl)pyridin-2-yl)-5,6-dihydro-4H-1,2,4-oxadiazin-5-yl)-3 ,4-dihydro-1H-[1,4]oxazino[4,3-a]indole] | 323 nM |
